What was measured:
[1] = tested on: Mycosphaerella graminicola (Septoria tritici); assay: Mycosphaerella graminicola (Septoria tritici) / liquid culture (Septoria blotch); assay type: cell-based; conditions: Zymoseptoria tritici, compared to untreated control
Description: (§1) Example B15: Mycosphaerella graminicola (Septoria tritici)/Liquid Culture (Septoria Blotch) Conidia of the fungus from cryogenic storage are directly mixed into nutrient broth (PDB potato dextrose broth). After placing a (DMSO) solution of test compound into a microtiter plate (96-well format), the nutrient broth containing the fungal spores is added. The test plates are incubated at 24° C. and the inhibition of growth is determined photometrically 4 to 5 days after application.

[2] = tested on: Monographella nivalis (Microdochium nivale); assay: Monographella nivalis (Microdochium nivale) / liquid culture (foot rot cereals); assay type: cell-based; conditions: compared to untreated control
Description: as §1, with “B8: Monographella nivalis (Microdochium nivale)/Liquid” for “B15: Mycosphaerella graminicola (Septoria tritici)/Liquid”, “(Foot Rot Cereals)” for “(Septoria Blotch)”

Pyrenophora teres = Pyrenophora teres / barley / leaf disc preventative (net blotch); assay type: in vivo; conditions: foliar, compared to untreated control
Description: Example B12: Pyrenophora teres/Barley/Leaf Disc Preventative (Net Blotch) Barley leaf segments cv. Hasso are placed on agar in a multiwell plate (24-well format) and sprayed with the formulated test compound diluted in water. The leaf segments are inoculated with a spore suspension of the fungus 2 days after application. The inoculated leaf segments are incubated at 20° C. and 65% rh under a light regime of 12 h light/12 h darkness in a climate cabinet and the activity of a compound is assessed as disease control compared to untreated when an appropriate level of disease damage appears in untreated check leaf segments (5 to 7 days after application).

[3] = tested on: Mycosphaerella arachidis (Cercospora arachidicola); assay: Mycosphaerella arachidis (Cercospora arachidicola) / liquid culture (early leaf spot); assay type: cell-based; conditions: compared to untreated control
Description: as §1, with “B9:” for “B15:”, “arachidis (Cercospora arachidicola)/Liquid” for “graminicola (Septoria tritici)/Liquid”, “(Early Leaf Spot)” for “(Septoria Blotch)”

[4] = tested on: Glomerella lagenarium (Colletotrichum lagenarium); assay: Glomerella lagenarium (Colletotrichum lagenarium) / liquid culture (anthracnose); assay type: cell-based; conditions: Colletotrichum orbiculare, compared to untreated control
Description: as §1, with “B3: Glomerella lagenarium (Colletotrichum lagenarium)/Liquid” for “B15: Mycosphaerella graminicola (Septoria tritici)/Liquid”, “(Anthracnose)” for “(Septoria Blotch)”, “measured” for “determined”, “photometrically 3 to” for “photometrically”, “4” for “4 to 5”

Alternaria solani = Alternaria solani / tomato / leaf disc (early blight); assay type: in vivo; conditions: foliar, compared to untreated control
Description: Example B1: Alternaria solani/Tomato/Leaf Disc (Early Blight) Tomato leaf disks cv. Baby are placed on agar in multiwell plates (24-well format) and sprayed with the formulated test compound diluted in water. The leaf disks are inoculated with a spore suspension of the fungus 2 days after application. The inoculated leaf disks are incubated at 23° C./21° C.

Pythium ultimum = Pythium ultimum / liquid culture (seedling damping off); assay type: cell-based; conditions: 20 ppm, compared to untreated control
Description: Example B13: Pythium ultimum/Liquid Culture (Seedling Damping Off) Mycelia fragments and oospores of a newly grown liquid culture of the fungus are directly mixed into nutrient broth (PDB potato dextrose broth). After placing a (DMSO) solution of test compound into a microtiter plate (96-well format), the nutrient broth containing the fungal mycelia/spore mixture is added. The test plates are incubated at 24° C. and the inhibition of growth is determined photometrically 2 to 3 days after application.

Phytophthora infestans = assay type: in vivo; conditions: 200 ppm; tomato leaf disc preventative; compared to untreated control
[5] = tested on: Gibberella zeae (Fusarium graminearum); assay type: in vivo; conditions: 200 ppm; wheat spikelet preventative; compared to untreated control

CCCCCCC(=O)N1C[C@H](c2cnn(C)c2C)c2ccccc2[C@@H]1C (racemic) [Compound P-11, 1-[rac-(1S,4S)-4-(1,5-dimethylpyrazol-4-yl)-1-methyl-3,4-dihydro-1H-isoquinolin-2-yl]heptan-1-one]
inhibition of growth at 20 ppm [1]: ≥ 80% | inhibition of growth at 20 ppm [2]: ≥ 80% | pest or weed control at 200 ppm (Pyrenophora teres): ≥ 80% | inhibition of growth at 20 ppm [3]: ≥ 80% | inhibition of growth at 20 ppm [4]: ≥ 80% | pest or weed control at 200 ppm (Alternaria solani): ≥ 80%

Cc1c([C@H]2CN(C(=O)CCc3ccc(F)cc3F)[C@@H](C)c3ccccc32)cnn1C (racemic) [Compound P-45, 3-(2,4-difluorophenyl)-1-[rac-(1S,4S)-4-(1,5-dimethylpyrazol-4-yl)-1-methyl-3,4-dihydro-1H-isoquinolin-2-yl]propan-1-one]
inhibition of growth at 20 ppm [1]: ≥ 80% | inhibition of growth at 20 ppm [2]: ≥ 80% | pest or weed control at 200 ppm (Pyrenophora teres): ≥ 80% | inhibition of growth at 20 ppm [3]: ≥ 80% | inhibition of growth at 20 ppm [4]: ≥ 80% | pest or weed control at 200 ppm (Alternaria solani): ≥ 80%

Cc1c(C2CN(C(=O)CCc3ccc(F)cc3F)Cc3ccccc32)cnn1C (centres unmarked) [Compound P-6, 3-(2,4-difluorophenyl)-1-[4-(1,5-dimethylpyrazol-4-yl)-3,4-dihydro-1H-isoquinolin-2-yl]propan-1-one]
inhibition of growth at 20 ppm [1]: ≥ 80% | pest or weed control at 200 ppm (Pyrenophora teres): ≥ 80% | inhibition of growth at 20 ppm [3]: ≥ 80% | control of Pythium ultimum (Pythium ultimum): at least 80% | pest or weed control at 200 ppm (Alternaria solani): ≥ 80%

Cc1c(C2CN(C(=O)CCC3CCCC3)Cc3ccccc32)cnn1C (centres unmarked) [Compound P-17, 3-cyclopentyl-1-[4-(1,5-dimethylpyrazol-4-yl)-3,4-dihydro-1H-isoquinolin-2-yl]propan-1-one]
inhibition of growth at 20 ppm [1]: ≥ 80% | control of Phytophthora infestans (Phytophthora infestans): at least 80%

Cc1c([C@H]2CN(C(=O)CCCCCC(F)F)[C@@H](C)c3ccccc32)cnn1C [Compound P-46, 1-[(1S,4S)-4-(1,5-dimethylpyrazol-4-yl)-1-methyl-3,4-dihydro-1H-isoquinolin-2-yl]-7,7-difluoro-heptan-1-one]
inhibition of growth at 20 ppm [1]: ≥ 80% | inhibition of growth at 20 ppm [2]: ≥ 80% | pest or weed control at 200 ppm (Pyrenophora teres): ≥ 80% | inhibition of growth at 20 ppm [3]: ≥ 80% | inhibition of growth at 20 ppm [4]: ≥ 80% | control of Gibberella zeae [5]: at least 80% | pest or weed control at 200 ppm (Alternaria solani): ≥ 80%

Cc1c([C@H]2CN(C(=O)CCCCC3CC3)[C@@H](C)c3ccccc32)cnn1C [Compound P-47, 5-cyclopropyl-1-[(1S,4S)-4-(1,5-dimethylpyrazol-4-yl)-1-methyl-3,4-dihydro-1H-isoquinolin-2-yl]pentan-1-one]
inhibition of growth at 20 ppm [1]: ≥ 80% | inhibition of growth at 20 ppm [2]: ≥ 80% | pest or weed control at 200 ppm (Pyrenophora teres): ≥ 80% | inhibition of growth at 20 ppm [3]: ≥ 80% | inhibition of growth at 20 ppm [4]: ≥ 80% | pest or weed control at 200 ppm (Alternaria solani): ≥ 80%
